One data set concerns Caspase-3. Kind of data set: Caspase-3 cleavage (western blot). It is filed as cell-based. Background: In western blotting, separated proteins are transferred to a membrane and probed.
The test system of the next data set is HeLa. Description: Response of tumor cell lines to erastin (dose-response). It is filed as cell-based. Here is the method:
(§1) Given that oncogenic RAS activates at least four downstream pathways, analysis was performed to identify which downstream effects were necessary for erastin sensitivity. In certain embodiments, the invention provides that erastin inhibits growth and kills genuine tumor cells with RAS mutations. In other embodiments, the invention provides measures of the dose-response of 29 tumor cell lines to erastin, wherein there is at least 50% inhibition of viability in 18 of the cell lines (Table 4). Numerous sarcoma-derived tumor cell lines were sensitive to erastin, consistent with the fact that erastin was discovered in an engineered tumor cell line created from human fibroblasts.

In another data set the test system is SW872. Described as above. It counts as cell-based. The method, then:
as §1

Another data set has as its system MX2. The description is as above. It counts as cell-based. Here is the method:
as §1

The test system of the next data set is C-33A. Described as above. It counts as cell-based. The method, then:
as §1

The test system of a further data set is U-2 OS. The data set is described as above. It is filed as cell-based. Here is the method: as §1
The subject of a further data set is SVR. The data set is described as above. It is filed as cell-based. Here is the method: as §1
For another data set, the system named is SJSA-1. Described as above. It counts as cell-based. Here is the method: as §1
The test system of a further data set is TC32. The data set is described as above. It counts as cell-based. Here is the method:
as §1

The subject of another data set is VDAC2, VDAC3. Kind of data set: VDAC isoform levels after erastin treatment (quantitative 2D western). It counts as cell-based, human. An excerpt:
Quantitative western blot of VDAC/eif4E protein ratio in engineered BJ-derived cells. (b) Identification of VDAC isoforms in BJ-TERT/LT/ST/RAS^V12 cells using 2-D electrophoresis. i) VDAC1, VDAC2 and VDAC3 were detected by a rabbit polyclonal VDAC antibody (Abcam/ab3434), ii) VDAC1 was detected by a mouse monoclonal VDAC1 antibody (Calbiochem/529534), iii) VDAC2 was detected by a goat polyclonal VDAC2 antibody (Abcam/ab22170), iv) An illustration of 3 isoforms of VDAC separated by the 2-D gel electrophoresis. (c) BJ-TERT/LT/ST/RAS^V12 cells were treated with erastin for the indicated time and levels of each VDAC isoform determined by quantitative 2D western. (d,e) Infection with VDAC3 shRNA protects erastin-treated cells. 293T cells were transfected with shRNA-plasmid construct using FuGene and viral supernatant transferred to HT1080 cells, and treated with erastin dilutions and viability measured using Trypan Blue exclusion. […] (f) Quantitative RT-PCR measurements of mRNA levels of the 3 VDAC isoforms after infection with shVDAC3. Knockdown was determined by normalizing to the levels in the shGFP-infected control. […] (g) Mitochondria were purified from yeast expressing murine VDAC3 in place of yeast VDAC, and the rate of NADH uptake determined in the presence or absence of erastin, or in shocked mitochondria in which the outer membrane was disrupted. […]

Data set [1] can be described thus: Stability in human plasma. It counts as in vitro ADME. To be noted: after five hours. Here is the method:
The stability of erastin in mouse and human liver microsomes and in mouse and human plasma was assessed. In both human and mouse liver microsomes, after 1 hr, ˜30% of erastin was converted to its primary metabolite (the O-de-ethylated product). In both human and mouse plasma, only ˜10% of erastin was lost after five hours. Thus, erastin has sufficient metabolic and plasma stability to be tested in vivo in mice.

In a further data set the test system is BJ-DRD cells. Kind of data set: Alamar Blue viability assay. It is filed as cell-based. To be noted: Homo sapiens; BJ-DRD (+RAS). An excerpt:
The engineered tumor cells make use of dominantly acting viral oncoproteins (LT and ST). These viral proteins are involved in cell transformation in specific forms of cancer, namely simian virus 40-induced malignant mesothelioma^134 and other viral oncogenes (E6 and E7) are involved in human papillomavirus-induced cervical carcinoma^135, and have been used to disrupt p53 and pRB function to transform cells in vitro and in vivo^136-138. The selectivity of erastin and the other compounds were further established in a cell line expressing dominant negative inhibitors of p53 and pRB not derived from viral elements. This cell line expresses (i) a truncated form of p53 (p53DD) that disrupts the tetramerization of endogenous p53, (ii) a CDK4^R24C mutant resistant to inhibition by p16INK4A and p15INK4B (the major negative regulators of CDK4) and (iii) cyclin D1. The effects of these RAS^V12-selective compounds at a range of concentrations were tested in these cells, BJ-TERT/p53^DD/CDK4^R24C/D1/ST/RAS^V12 (named BJ-DRD) cells. […] Thus, these compounds (including erastin) are effective in tumor cells transformed without viral proteins (other than ST).
Alamar Blue metabolism: 10% Alamar Blue was added to assay plates, which were then incubated for an additional 16 hours. Red fluorescence, resulting from reduction of Alamar Blue, was detected on a Victor3 platereader (ex: 530, em: 590).
Table 2. […]
In general terms: The colour change of resazurin is a common sign of viable cells or microbes.

Values after ≈ are worked out from the molar mass of the structure shown.

This note sets out measurements from patent US20080299076A1, “Compunds and compositions that cause non-apoptotic cell death and uses thereof” (priority 2006, published 2008).

On to `CCOc1ccccc1-n1c(C(C)N2CCN(C(=O)COc3ccc(Cl)cc3)CC2)nc2ccccc2c1=O` (stereo not shown) [erastin, 2-(1-{4-[2-(4-Chloro-phenoxy)-acetyl]-piperazin-1-yl}-ethyl)-3-(2-ethoxy-phenyl)-3H-quinazolin-4-one], for which the Caspase-3 cleavage result with Caspase-3 is reported as “not cleaved”. In addition, the Max % killing in the data set on HeLa (Cervical carcinoma) is listed as 94%; with SW872 (SW872, Liposarcoma) it was 0%; in the data set with MX2 (MX2, Uterine Sarcoma) it was 71%; in the data set on C-33A (cervical carcinoma), 21%; with U-2 OS (Osteosarcoma), 96%; in the data set with SVR (Pancreatic carcinoma), 20%. For the same compound, the Max % killing in the data set on SJSA-1 (SJSA-1, Osteosarcoma) turned out to be 100%; in the data set with TC32 (TC32, Peripheral neuroepithelioma), 88%. Besides, the EC50 (in general, the concentration needed to bring the measured effect to its halfway point) in the data set on HeLa (Homo sapiens) came to 0.6 µM; in the data set on MX2 (MX2) it was 18 µM; in the data set with C-33A (Homo sapiens), 0.6 µM; in the data set with U-2 OS (Homo sapiens, U2OS) it was 6 µM; with SVR (Mus musculus) it was 2.5 µM; in the data set on SJSA-1 (Homo sapiens, SJSA-1) it was 12 µM. In the data set on TC32 (Homo sapiens, TC-32, TC32), the EC50 amounted to 8 µM. In addition, the “Erastin Sensitivity (maximum percent killing, as fraction)” value was determined as 0.00 in the data set on SW872 (SW 872) and 0.88 in the data set on TC32 (TC 32). Besides, the VDAC3 protein level result with VDAC2, VDAC3 (after 8 hours of erastin treatment) was “no longer detectable”. In addition, the VDAC2 protein level result in the data set with VDAC2, VDAC3 (after 10 hours of erastin treatment) is given as “undetectable”. The compound also had a compound lost in data set [1] of roughly 10%. The IC50 – broadly, the concentration at which inhibition is half-maximal – in the data set on BJ-DRD cells was found to be 2.5 mg/L (≈ 4.57 µM).
